Assay results as given in US7556938B1, “Nucleic acids encoding potassium channel interactors” (Millennium Pharmaceuticals, Inc., priority 1998, dated 2009).

System: A-current in cultured primary cerebellar granule neurons
Test: Arachidonic acid effects on the A-current in cultured primary cerebellar granule neurons
Type: cell-based
Conditions: 10 μM arachidonic acid, TEA (10 mM) applied, mean±SEM
Protocol: The arachidonic acid effects on the A-current were also investigated in a neuronal system (cultured primary cerebellar granule neurons) where both Kv4 and KChIPs are present. TEA (10 mM) was applied to block a small sustained outward component. Inactivation time constants of the A current in the absence and presence of 10 μM arachidonic acid were 44±5 ms and 21±3 ms (mean±SEM), respectively. The corresponding peak amplitude was reduced from 2.0±0.6 nA to 1.2±0.4 nA.

CCCCC/C=C\C/C=C\C/C=C\C/C=C\CCCC(=O)O [arachidonic acid]
Inactivation time constant of the A current: 21 ± 3 ms
peak amplitude of the A current: 1.2±0.4 nA
